These results are taken from patent US4775675A, “Thiazolidinecarboxylic acid derivatives and treatment of liver diseases therewith” (Biogal Gyogyszergyar, priority 1985, dated 1988).

For series [1], the system named is CFY male rats. In words: liver protecting effect: carbon tetrachloride intoxication followed by treatment with the compounds under test. It is filed as in vivo, rat (CFY male). As to conditions: CCl4 1.5 g/kg orally, compound 100 mg/kg i.p. after 6 hours; for TG (triglyceride content of the liver): control 40 ± 8, CCl4 alone 86 ± 17; for SGOT activity: control 81.7 ± 16, CCl4 alone 269.0 ± 14. The protocol: (§1) In order to investigate the liver protecting effect, the compounds were tested at CFY male rats with 200 to 240 g of body-weight after a starvation for 18 hours.
(§2) An experimental liver damage was elicited by using carbon tetrachloride, allyl alcohol or galactosamine. The activity of the serum glutamate-oxalacetate-transaminase (SGOT), the triglyceride (TG) content of the liver as well as the histological picture of the liver were studied.
(§3) Liver damaging agents (1.5 g/kg of body-weight of carbon tetrachloride orally; 0.75 g/kg of body-weight of galactosamine intraperitoneally) were administered to the starved animals, whereupon the animals received the compound under test in a dose of 100 mg/kg of body-weight intraperitoneally after 6 hours.
(a) The results of the carbon tetrachloride intoxication followed by treatment with the compounds under test are as follows: […]

In series [2] the test system is CFY male rats. In words: liver protecting effect: galactosamine damage followed by treatment with the compounds under test (histology). It is filed as in vivo, rat (CFY male). The following applies: galactosamine 0.75 g/kg i.p., compound i.p. 6 hours later.
Series [3] in a line: acute toxicity investigation (LD50). The following applies: mouse, in vivo, mice. The procedure: The compounds prepared were subjected to acute toxicity investigations. For this purpose, the compounds under test were dissolved in an aqueous sodium carbonate solution and administered intraperitoneally (i.p.) or intravenously (i.v.) to the animals (40 days old CFLP female mice).
Some characteristic LD50 values of the compounds of the invention are as follows: […]

The subject of series [4] is CFY male rats. In words: liver protecting effect: allyl alcohol intoxication followed by treatment with the compounds under test. The following applies: compound 100 mg/kg of body-weight, after 24 hours, before 1.81±0.43, allyl alcohol 4.16±1.63. It is filed as in vivo, rat (CFY male). The procedure:
as §1, §2, §3
(b) The results of the allyl alcohol intoxication followed by treatment with the compounds under test are as follows:
After 24 hours, the animals were killed and the activity of the serum glutamate-pyruvate-transaminase (SGPT) was determined. After a treatment with allyl alcohol, the SGPT level was increased from a value of 1.81±0.43 μmoles/ml.h. to 4.16±1.63 μmoles/ml. h. This increase was diminished to 2.84±0.97 μmoles/ml.h. by a treatment with a 100 mg/kg of body-weight dose of the compound described in Example 1.

Structures can show the parent of a compound that is named as a salt.

Turning to `Cn1cccc1C1N[C@@H](C(=O)O)C(C)(C)S1` (stereo partly drawn) [Example 4, 5,5-Dimethyl-2-(N-methyl-2-pyrrolyl)thiazolidine-4(S)-carboxylic acid], in the series on CFY male rats [1], the TG (triglyceride content of the liver) stood at 114 ± 24 µg/mg protein and the SGOT activity is on record as 241.0 ± 21 unit/liter.

In the series on CFY male rats [1], `CSc1ccc(C2N[C@@H](C(=O)O)C(C)(C)S2)cc1` (stereo partly drawn) [Example 11, 5,5-Dimethyl-2-(4-methylmercaptophenyl)-thiazolidine-4(S)-carboxylic acid] registered a TG (triglyceride content of the liver) of 70 ± 14 µg/mg protein and an SGOT activity of 235.0 ± 19 unit/liter.

In the case of `CC1(C)SC(c2ccco2)N[C@H]1C(=O)O` (stereo partly drawn) [Example 2, 5,5-Dimethyl-2-(2-furyl)-thiazolidine-4(S)-carboxylic acid], in the series on CFY male rats [2], the “number of focally appearing parenchymal necroses” value is reported as “diminished” and the “severity of the alterations characteristic of the galactosamine hepatitis” value is listed as “diminished”. In the series with CFY male rats [1], this molecule registered a TG (triglyceride content of the liver) of 84 ± 6 µg/mg protein and an SGOT activity of 229.0 ± 14 unit/liter.

Broadly, the LD50 is the dose at which mortality reaches 50%. Lower therefore signals a more toxic substance. In series [3] (ip), `CC(=O)N1[C@@H](C(=O)O)C(C)(C)S[C@H]1c1ccc([N+](=O)[O-])o1` [Example 30, 3-Acetyl-5,5-dimethyl-2(S)-(5-nitro-2-furyl)-thiazolidine-4(S)-carboxylic acid] displayed an LD50 of 2500 mg/kg.

`CC(=O)N1[C@@H](c2ccc(Cl)cc2)SC(C)(C)[C@@H]1C(=O)O` [Example 22, 3-Acetyl-2(R)-(4-chlorophenyl)-5,5-dimethylthiazolidine-4(S)-carboxylic acid]: the median lethal dose (LD50) in series [3] (ip) was determined as 550 mg/kg. Compared with the last molecule, the LD50 is about 4.5-fold lower.

In the series on CFY male rats [1], `CC1(C)SC(c2cc3ccccc3o2)N[C@H]1C(=O)O` (stereo partly drawn) [Example 7, 2-(2-Benzofuryl)-5,5-dimethylthiazolidine-4(S)-carboxylic acid] came in with a TG (triglyceride content of the liver) of 61 ± 13 µg/mg protein and an SGOT activity of 224.0 ± 14 unit/liter.

For `CC1(C)SC(c2cccc([N+](=O)[O-])c2)N[C@H]1C(=O)O` (stereo partly drawn) [Example 9, 5,5-Dimethyl-2-(3-nitrophenyl)-thiazolidine-4(S)-carboxylic acid magnesium salt], in the series on CFY male rats [1], the TG (triglyceride content of the liver) was determined as 83 ± 19 µg/mg protein and the SGOT activity came to 232.0 ± 34 unit/liter.

Turning to `CC1(C)SC(c2ccncc2)N[C@H]1C(=O)O` (stereo partly drawn) [Example 6, 5,5-Dimethyl-2-(4-pyridyl)-thiazolidine-4(S)-carboxylic acid], in the series with CFY male rats [1], the TG (triglyceride content of the liver) turned out to be 88 ± 20 µg/mg protein and the SGOT activity was determined as 250.0 ± 13 unit/liter.

Consider `CC1(C)SC(CO)N[C@H]1C(=O)O` (stereo partly drawn) [Example 14, 5,5-Dimethyl-2-hydroxymethylthiazolidine-4(S)-carboxylic acid], for which the LD50 in series [3] (ip) stood at 5000 mg/kg.

As for `CC1(C)SC(c2ccc([N+](=O)[O-])o2)N[C@H]1C(=O)O` (stereo partly drawn) [Example 1, 5,5-Dimethyl-2-(5-nitro-2-furyl)-thiazolidine-4(S)-carboxylic acid], in the series on CFY male rats [2], the “number of focally appearing parenchymal necroses” value is given as “diminished” and the “severity of the alterations characteristic of the galactosamine hepatitis” value is “diminished”. Also, in the series with CFY male rats [4], the “SGPT level (activity of the serum glutamate-pyruvate-transaminase)” value was found to be 2.84 ± 0.97 µmol/mL/h. In the series on CFY male rats [1], this molecule came in with a TG (triglyceride content of the liver) of 51 ± 15 µg/mg protein and an SGOT activity of 224.0 ± 14 unit/liter. The molecule also had an LD50 in series [3] (iv) of 2190 mg/kg.

As for `CC1(C)SC(c2cccnc2)N[C@H]1C(=O)O` (stereo partly drawn) [Example 5, 5,5-Dimethyl-2-(3-pyridyl)-thiazolidine-4(S)-carboxylic acid], in the series on CFY male rats [1], the TG (triglyceride content of the liver) amounted to 61 ± 14 µg/mg protein and the SGOT activity was 243.0 ± 21 unit/liter.

On to `Oc1cc(O)c2c(c1)O[C@H](c1ccc(O)c(O)c1)[C@@H](O)C2` [catergen, (+)2-(3,4-dihydroxyphenyl)-3,5,7-chromanetriol, reference compound], for which, in the series on CFY male rats [1], the TG (triglyceride content of the liver) amounted to 77 ± 7 µg/mg protein and the SGOT activity worked out at 241.0 ± 23 unit/liter.

The molecule `CC(=O)N1[C@@H](C(=O)O)C(C)(C)S[C@H]1c1ccccc1` [Example 27, 3-Acetyl-5,5-dimethyl-2(S)-phenylthiazolidine-4(S)-carboxylic acid] registered an LD50 in series [3] (ip) of 1500 mg/kg.

Turning to `CC1(C)SC(c2ccc(F)cc2)N[C@H]1C(=O)[O-].[K+]` (stereo partly drawn) [Example 10, 5,5-Dimethyl-2-(4-fluorophenyl)-thiazolidine-4(S)-carboxylic acid and potassium salt], in the series on CFY male rats [1], the TG (triglyceride content of the liver) is 81 ± 11 µg/mg protein and the SGOT activity is recorded as 227.0 ± 40 unit/liter.

For the molecule `CC1(C)SC(c2ccc3c(c2)CCC3)N[C@H]1C(=O)O` (stereo partly drawn) [Example 8, 5,5-Dimethyl-2-(5-indanyl)-thiazolidine-4(S)-carboxylic acid], in the series on CFY male rats [1], the TG (triglyceride content of the liver) stood at 76 ± 10 µg/mg protein and the SGOT activity is given as 234.0 ± 23 unit/liter.
